Assay results reported in US20020040139A1, “INTRANASAL FORMULATIONS FOR TREATING SEXUAL DISORDERS” (priority 1998, published 2002).
Structures can show the parent of a compound that is named as a salt.

Experiments:
[1] = Plasma levels in human volunteers after intranasal administration; assay type: in vivo; conditions: man
[2] = Plasma levels in dogs after intranasal versus oral dosing; assay type: in vivo
Experimental: The effectiveness of the intranasal formulations of the present invention were evaluated in dogs. Four fasted dogs were lightly anaesthetised, each received 5 mg of the cGMP-PDE5 inhibitor in both nostrils. The drug was administered both as a powder and as a solution. Plasma levels of the active agent were measured and compared with plasma levels obtained when the dogs were previously orally dosed with the agent.
Thus a solution dose of 0.7 mg/kg of sildenafil mesylate administered by the intranasal route to four dogs gave a mean peak blood plasma levels of 407 ng/ml after a period of 5 minutes.

[3] = Aqueous solubility of sildenafil mesylate; assay type: physicochemical; conditions: no solubility enhancing agent
Experimental: Preferred as solubility enhancing agents are caffeine (preferably at a concentration of from 1.0 to 2.5% weight/vol); nicotinamide (preferably 3.0 to 20.0% weight/vol); vanillin (preferably 0.5 to 2.5% weight/vol); and benzyl alcohol (preferably 0.5 to 2.5% weight/vol). A combination of nicotinamide and vanillin is also preferred. By using such solubility enhancing agents, it is possible to increase the solubility of sildenafil mesylate in water from approximately 60 mg/ml to in excess of 100 mg/ml. This allows a more concentrated solution to be administered facilitating a rapid onset of action and reducing irritancy. One particular and preferred formulation comprises sildenafil mesylate 100 mg/ml and caffeine 15 mg/ml in a buffered aqueous solution. The pH of the solution is preferably adjusted to pH 3-5, preferably to pH 4.2 by the addition of a base e.g. sodium hydroxide.

[4] = four dogs, intranasal route, solution dose 0.7 mg/kg

Row | Compound | blood plasma levels of sildenafil versus oral dosing [1] | time of peak blood plasma levels after administration [1] | blood plasma levels after intranasal versus oral administration ([2]; dogs, intranasal powder and solution, 5 mg in both nostrils, compared with oral dosing) | mean peak blood plasma level [2, 4] | time of mean peak blood plasma level [2, 4] | solubility in water [3] | mean peak blood plasma level ([2]; dog, in vivo, po, 1.4 mg/kg) | time of mean peak blood plasma level ([2]; dog, in vivo, po, 1.4 mg/kg)
1 | 5-[2-ethoxy-5-(4-methylpiperazin-1-ylsulphonyl)phenyl]-1,6-dihydro-1-methyl-3-propylpyrazolo[4,3-d]pyrimidin-7-one)methanesulphonate salt [sildenafil mesylate] | comparable with oral dosing | 5 to 15 min | particularly effective | 407 ng/mL | 5 min | approximately 60 mg/ml |  | 
2 | CCCc1nn(C)c2c(=O)[nH]c(-c3cc(S(=O)(=O)N4CCN(C)CC4)ccc3OCC)nc12 [sildenafil citrate, reference compound] |  |  |  |  |  |  | 204 ng/mL | 136 min
